Reference: ChEMBL document CHEMBL4229324, “Synthesis and antitumor activities of 1,2,3-triazines and their benzo- and heterofused derivatives” (Eur J Med Chem, 2017)
Converted amounts (≈) assume the structure as drawn.

Experiments:
[1] = biological target: T1, Tyrosine-protein kinase JAK3 (Homo sapiens, UniProt P52333); experiment: Inhibition of JAK3 (unknown origin)
T1 sequence (P52333 whole entry): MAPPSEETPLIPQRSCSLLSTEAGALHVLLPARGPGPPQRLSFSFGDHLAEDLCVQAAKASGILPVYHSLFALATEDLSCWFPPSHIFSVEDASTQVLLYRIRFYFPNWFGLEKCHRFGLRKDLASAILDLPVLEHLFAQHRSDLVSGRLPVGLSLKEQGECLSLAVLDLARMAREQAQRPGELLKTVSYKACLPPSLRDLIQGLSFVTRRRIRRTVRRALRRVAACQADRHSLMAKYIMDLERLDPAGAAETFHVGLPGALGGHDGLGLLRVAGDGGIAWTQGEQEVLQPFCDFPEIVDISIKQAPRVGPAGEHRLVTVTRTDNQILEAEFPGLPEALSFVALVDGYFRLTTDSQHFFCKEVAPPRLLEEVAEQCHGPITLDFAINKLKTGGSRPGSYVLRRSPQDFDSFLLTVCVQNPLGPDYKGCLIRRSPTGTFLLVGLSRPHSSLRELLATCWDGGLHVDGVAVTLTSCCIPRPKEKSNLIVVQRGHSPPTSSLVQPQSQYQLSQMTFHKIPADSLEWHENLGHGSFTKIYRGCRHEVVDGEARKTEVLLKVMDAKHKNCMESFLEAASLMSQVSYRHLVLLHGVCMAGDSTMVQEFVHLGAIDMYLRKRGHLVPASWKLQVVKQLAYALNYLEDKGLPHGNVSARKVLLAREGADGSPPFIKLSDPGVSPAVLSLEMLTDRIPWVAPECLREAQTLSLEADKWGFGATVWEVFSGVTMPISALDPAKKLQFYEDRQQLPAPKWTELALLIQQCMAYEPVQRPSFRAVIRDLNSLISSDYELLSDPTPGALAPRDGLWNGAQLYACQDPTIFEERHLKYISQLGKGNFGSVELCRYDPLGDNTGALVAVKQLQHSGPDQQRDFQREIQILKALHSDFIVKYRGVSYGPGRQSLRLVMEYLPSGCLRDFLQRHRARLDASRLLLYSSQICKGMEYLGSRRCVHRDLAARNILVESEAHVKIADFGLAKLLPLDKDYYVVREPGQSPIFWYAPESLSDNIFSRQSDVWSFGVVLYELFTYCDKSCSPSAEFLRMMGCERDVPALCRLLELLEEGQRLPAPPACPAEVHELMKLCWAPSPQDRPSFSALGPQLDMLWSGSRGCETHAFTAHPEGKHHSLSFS

[2] = Acute toxicity in white mongrel mouse administered as single intraperitoneal injection; type: organism-based; conditions: in vivo, ip
[3] = biological target: Ribosomal protein S6 kinase beta-1 (Homo sapiens, UniProt P23443, T412E); experiment: Inhibition of N-terminal 6His-tagged human recombinant p70S6K T412E mutant (1 to 421 residues) in Sf21 insect cells using FITC-AHA-AKRRRLSSLRA-OH substrate peptide incubated for 90 mins
Homo sapiens = species: Homo sapiens; experiment: Antiproliferative activity against HMVEC incubated for 4 days by MTT assay; type: functional
MCF7 [4] = experiment: Antiproliferative activity against human MCF7 cells assessed as cell survival at 25 ug/ml relative to untreated control; type: functional; conditions: read-out: Survival
[5] = biological target: Epidermal growth factor receptor (Homo sapiens, UniProt P00533); experiment: Inhibition of EGFR (unknown origin)
T47D = experiment: Antiproliferative activity against human T47D cells assessed as inhibition of cell proliferation incubated for 48 hrs by cell-titer-Glo reagent based assay; type: functional
HT-29 = experiment: Antiproliferative activity against human HT-29 cells assessed as inhibition of cell proliferation incubated for 48 hrs by cell-titer-Glo reagent based assay; type: functional; conditions: HT-29, 48 h
NCI-H1299 = experiment: Antiproliferative activity against human NCI-H1299 cells assessed as inhibition of cell proliferation incubated for 48 hrs by cell-titer-Glo reagent based assay; type: functional; conditions: NCI-H1299, 48 h
MX1 = experiment: Antiproliferative activity against human MX1 cells assessed as inhibition of cell proliferation incubated for 48 hrs by cell-titer-Glo reagent based assay; type: functional; conditions: MX1, 48 h
MDA-MB-435 = experiment: Antiproliferative activity against human MDA-MB-435 cells assessed as inhibition of cell proliferation incubated for 48 hrs by cell-titer-Glo reagent based assay; type: functional; conditions: MDA-MB-435, 48 h
Caspase = experiment: Activation of caspase cascade in human T47D cells using N-(Ac-DEVD)-N'-ethoxycarbonyl-R110 fluorogenic substrate incubated for 48 hrs by fluorescent plate reader based assay; type: cell-based
DU-145 = experiment: Antiproliferative activity against human DU145 cells incubated for 4 days by MTT assay; type: functional, cell-based; conditions: DU-145, 96 h
PC-3 = experiment: Antiproliferative activity against human PC3 cells incubated for 4 days by MTT assay; type: functional, cell-based; conditions: PC-3, 96 h
[6] = test system: Lewis lung carcinoma cell line; experiment: Antiproliferative activity against mouse LL/2 cells incubated for 4 days by MTT assay; type: functional, cell-based; conditions: 96 h
B16-F10 = experiment: Antiproliferative activity against mouse B16F10 cells incubated for 4 days by MTT assay; type: functional, cell-based; conditions: B16-F10, 96 h
MCF7 [7] = experiment: Cytotoxic activity against human MCF7 cells; type: functional, cell-based
[8] = Inhibition of binding of vascular endothelial growth factor to heparin pre-incubated with VEGF prior to application to plates for 45 mins by ELISA
[9] = Inhibition of binding of beta-FGF to heparin pre-incubated with beta-FGF prior to application to plate for 45 mins by ELISA

Chain of Ribosomal protein S6 kinase beta-1 (P23443 whole entry T412E, the tested form may be a part): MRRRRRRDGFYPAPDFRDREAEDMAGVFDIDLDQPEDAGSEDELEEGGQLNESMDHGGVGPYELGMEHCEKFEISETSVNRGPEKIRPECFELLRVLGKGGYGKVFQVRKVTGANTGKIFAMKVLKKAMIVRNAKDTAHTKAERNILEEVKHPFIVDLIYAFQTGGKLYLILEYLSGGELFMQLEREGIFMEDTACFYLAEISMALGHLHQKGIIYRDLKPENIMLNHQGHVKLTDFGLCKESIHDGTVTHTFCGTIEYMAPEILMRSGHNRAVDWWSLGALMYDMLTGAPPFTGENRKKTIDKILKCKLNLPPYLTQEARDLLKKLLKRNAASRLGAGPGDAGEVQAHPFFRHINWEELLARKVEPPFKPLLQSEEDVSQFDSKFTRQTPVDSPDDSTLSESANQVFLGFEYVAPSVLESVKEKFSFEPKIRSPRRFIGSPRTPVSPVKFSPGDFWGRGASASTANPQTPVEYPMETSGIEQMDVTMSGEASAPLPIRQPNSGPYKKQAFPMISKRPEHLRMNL
Chain of Epidermal growth factor receptor (P00533 whole entry): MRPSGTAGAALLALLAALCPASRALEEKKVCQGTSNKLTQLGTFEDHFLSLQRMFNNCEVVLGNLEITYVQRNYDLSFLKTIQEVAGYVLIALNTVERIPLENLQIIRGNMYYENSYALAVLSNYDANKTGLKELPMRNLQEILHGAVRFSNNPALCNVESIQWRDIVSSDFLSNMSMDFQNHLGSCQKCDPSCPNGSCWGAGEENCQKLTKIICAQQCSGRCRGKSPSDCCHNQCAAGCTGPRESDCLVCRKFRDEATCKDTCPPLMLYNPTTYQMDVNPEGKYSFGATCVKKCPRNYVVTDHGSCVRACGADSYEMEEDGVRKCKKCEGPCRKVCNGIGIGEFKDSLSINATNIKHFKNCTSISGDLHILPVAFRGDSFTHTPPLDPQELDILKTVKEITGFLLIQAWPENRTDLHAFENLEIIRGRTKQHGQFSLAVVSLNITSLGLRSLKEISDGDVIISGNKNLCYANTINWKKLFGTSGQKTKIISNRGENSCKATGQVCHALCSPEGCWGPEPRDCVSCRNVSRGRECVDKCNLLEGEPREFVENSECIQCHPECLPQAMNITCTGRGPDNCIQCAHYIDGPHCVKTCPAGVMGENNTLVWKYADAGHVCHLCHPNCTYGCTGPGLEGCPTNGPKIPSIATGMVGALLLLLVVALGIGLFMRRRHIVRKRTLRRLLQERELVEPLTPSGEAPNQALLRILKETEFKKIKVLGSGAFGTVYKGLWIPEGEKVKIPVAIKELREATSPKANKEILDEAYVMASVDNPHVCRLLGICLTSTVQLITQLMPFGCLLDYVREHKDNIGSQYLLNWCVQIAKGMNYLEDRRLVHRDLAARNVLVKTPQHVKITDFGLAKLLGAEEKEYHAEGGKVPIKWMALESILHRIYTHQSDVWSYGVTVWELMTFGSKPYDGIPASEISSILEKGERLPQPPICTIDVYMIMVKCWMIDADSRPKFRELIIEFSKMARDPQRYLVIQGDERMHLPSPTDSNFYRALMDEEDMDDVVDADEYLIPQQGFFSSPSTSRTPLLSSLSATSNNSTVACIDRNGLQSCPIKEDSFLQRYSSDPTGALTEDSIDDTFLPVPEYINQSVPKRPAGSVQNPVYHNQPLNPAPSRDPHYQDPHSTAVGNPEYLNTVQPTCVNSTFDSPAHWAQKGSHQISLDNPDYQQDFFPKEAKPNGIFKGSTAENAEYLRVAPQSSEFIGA

Row | SMILES | IC50 [3] [µM] | GI50 (Homo sapiens) [µM] | also measured
1 | NC(=O)c1c[nH]c2nnnc(O)c12 | – | – | IC50 [1]: < 10 µM
2 | CC1(C)Cc2c(c(N3CCOCC3)nc3sc4c(N(Cc5ccccc5)Cc5ccccc5)nnnc4c23)CO1 | – | – | MTD [2]: 2000 mg/kg
3 | CC1(C)Cc2c(c(N3CCOCC3)nc3sc4c(Cl)nnnc4c23)CO1 | – | – | MTD [2]: 2000 mg/kg
4 | CN(C)C[C@@H](Nc1nnnc2c(C(N)=O)cccc12)c1ccc(Cl)c(Cl)c1 | < 0.025 | – | –
5 | NC(=O)c1cccc2c(NCc3cc(C(F)(F)F)ccn3)nnnc12 | > 1 | – | –
6 | CC1(C)Cc2c(c(N3CCOCC3)nc3sc4c(N5CCNCC5)nnnc4c23)CO1 | – | – | MTD [2]: 2000 mg/kg
7 | CCCCCCNc1nnnc2c1sc1nc(N3CCOCC3)c3c(c12)CC(C)(C)OC3 | – | – | MTD [2]: 2000 mg/kg
8 | C=CCNc1nnnc2c1sc1nc(N3CCOCC3)c3c(c12)CC(C)(C)OC3 | – | – | MTD [2]: 2000 mg/kg
9 | NNc1nnnc2c1sc1nc(N3CCOCC3)c3c(c12)CCCC3 | – | – | MTD [2]: 2000 mg/kg
10 | Clc1ccc(Nc2nnnc3ccccc23)cc1 | – | > 80 | –
11 | COc1cc([C@@H](CN(C)C)Nc2nnnc3c(C(N)=O)cccc23)ccc1Cl | 0.025 to 0.1 | – | –
12 | COc1cc2c(Nc3ccc(Cl)cc3)nnnc2cc1OCCCCl | – | 18.6 | –
13 | COc1cc2c(Nc3ccc(F)cc3)nnnc2cc1OCCCCl | – | 23.1 | –
14 | CCOc1cc2nnnc(Nc3ccc(Cl)cc3)c2cc1OC | – | 26.5 | –
15 | NC(=O)c1cccc2c(NCc3ccc(Cl)c(Cl)c3)nnnc12 | < 0.025 | – | –
16 | COc1cc2c(Nc3cc(Cl)cc(Cl)c3)nnnc2cc1OCCCCl | – | 28.8 | –
17 | CC(C)CCNc1nnnc2c1sc1nc(N3CCOCC3)c3c(c12)CCCC3 | – | – | MTD [2]: 2000 mg/kg
18 | CCCCCOc1cc2nnnc(Nc3cccc(OC(F)(F)F)c3)c2cc1OC | – | 42.6 | –
19 | CC1(C)Cc2c(c(N3CCOCC3)nc3sc4c(NNc5ccccc5)nnnc4c23)CO1 | – | – | MTD [2]: 2000 mg/kg

Row | SMILES | IC50 [3] [µM] | GI50 (Homo sapiens) [µM] | also measured
20 | Oc1cccc(Nc2nnnc3sc4c(c23)CCC4)c1 | – | – | viability at 25 µg/mL (MCF7 [4]): 12%; IC50 [5]: 52.1 µM
21 | CN(C)C[C@@H](Nc1nnnc2c(C(N)=O)cccc12)c1ccc(Cl)c(C(F)(F)F)c1 | < 0.025 | – | –
22 | N#Cc1cc([C@@H](CN2CCC2)Nc2nnnc3c(C(N)=O)cccc23)ccc1Cl | < 0.025 | – | –
23 | CC(C)CCNc1nnnc2c1sc1nc(N3CCOCC3)c3c(c12)CC(C)(C)OC3 | – | – | MTD [2]: 2000 mg/kg
24 | COc1ccc(N(C)c2nnnc3ccccc23)cc1 | – | – | IC50 (T47D): 0.007 to 0.05 µM; IC50 (HT-29): 0.007 to 0.05 µM; IC50 (NCI-H1299): 0.007 to 0.05 µM; IC50 (MX1): 0.007 to 0.05 µM; IC50 (MDA-MB-435): 0.007 to 0.05 µM; EC50 (Caspase): 0.016 µM
25 | COc1cc2c(Nc3ccc(F)c(C(F)(F)F)c3)nnnc2cc1OCCCCl | – | 15.2 | –
26 | CCOc1cc2nnnc(Nc3ccc(C)cc3)c2cc1OC | – | 42.6 | –
27 | COc1cc2c(Nc3cccc(OC(F)(F)F)c3)nnnc2cc1OCCCCl | – | 24.9 | –
28 | NC(=O)c1cccc2c(NCc3cccnc3)nnnc12 | > 1 | – | –
29 | NC(=O)c1cccc2c(NCc3ccc(Cl)c(C(F)(F)F)c3)nnnc12 | < 0.025 | – | –
30 | COc1cc2c(Nc3ccc(C)cc3)nnnc2cc1OCCCCl | – | 17.1 | –
31 | NC(=O)c1cccc2c(NCc3ccccc3)nnnc12 | 0.501 to 1 | – | –
32 | CCN(CC)CCNc1nnnc2c1sc1nc(N3CCOCC3)c3c(c12)CC(C)(C)OC3 | – | – | MTD [2]: 2000 mg/kg
33 | CCOc1cc2nnnc(Nc3ccc(F)c(Cl)c3)c2cc1OC | – | 38.8 | –
34 | Clc1nnnc2c1sc1nc(N3CCOCC3)c3c(c12)CCCC3 | – | – | MTD [2]: 2000 mg/kg
35 | Oc1ccc(Nc2nnnc3sc4c(c23)CCC4)cc1 | – | – | viability at 25 µg/mL (MCF7 [4]): 13%; IC50 [5]: 38.7 µM
36 | CC1(C)Cc2c(c(N3CCOCC3)nc3sc4c(NN)nnnc4c23)CO1 | – | – | MTD [2]: 2000 mg/kg
37 | COc1cc2c(Nc3ccccc3)nnnc2cc1OCCCCl | – | > 80 | –
38 | c1coc(CNc2nnnc3c2sc2nc(N4CCOCC4)c4c(c23)CCCC4)c1 | – | – | MTD [2]: 2000 mg/kg

Row | SMILES | IC50 [3] [µM] | GI50 (Homo sapiens) [µM] | also measured
39 | NC(=O)c1cccc2c(N[C@H](CN3CCC3)c3ccc(F)c(C(F)(F)F)c3)nnnc12 | < 0.025 | – | –
40 | NC(=O)c1cccc2c(NCc3ccc(C(F)(F)F)cc3)nnnc12 | 0.025 to 0.1 | – | –
41 | COc1cc2c(Nc3ccc(Cl)c(Cl)c3)nnnc2cc1OCCCCl | – | 11 | –
42 | CCCCCOc1cc2nnnc(Nc3ccc(OC(F)(F)F)cc3)c2cc1OC | – | 38 | –
43 | NC(=O)c1cccc2c(N[C@H](CN3CCC3)c3ccc(Cl)c(Cl)c3)nnnc12 | < 0.025 | – | –
44 | NC(=O)c1cccc2c(N[C@H](CN3CCC3)c3ccc(Cl)c(C(F)(F)F)c3)nnnc12 | < 0.025 | – | –
45 | c1ccc(NNc2nnnc3c2sc2nc(N4CCOCC4)c4c(c23)CCCC4)cc1 | – | – | MTD [2]: 2000 mg/kg
46 | NC(=O)c1cccc2c(NCc3cccc(F)c3)nnnc12 | 0.501 to 1 | – | –
47 | COc1cc2c(Nc3ccc(OC(F)(F)F)cc3)nnnc2cc1OCCCCl | – | 23.2 | –
48 | COc1cc2c(Nc3ccc(F)c(Cl)c3)nnnc2cc1OCCCCl | – | 7.98 | IC50 (DU-145): 3.79 to 6.91 µM; IC50 (PC-3): 3.79 to 6.91 µM; IC50 [6]: 3.79 to 6.91 µM; IC50 (B16-F10): 3.79 to 6.91 µM
49 | CCCCCOc1cc2nnnc(Nc3ccc(Cl)cc3)c2cc1OC | – | 25.4 | –
50 | NC(=O)c1cccc2c(NCc3ccccn3)nnnc12 | > 1 | – | –
51 | O=c1[nH]nnc2c1C1C(=Cc3ccccc31)S2 (stereo not drawn) | – | – | IC50 (MCF7 [7]): 6 µg/mL (≈ 24.9 µM)
52 | COc1cc([C@@H](CN2CCC2)Nc2nnnc3c(C(N)=O)cccc23)ccc1Cl | < 0.025 | – | –
53 | CN(C)C[C@@H](Nc1nnnc2c(C(N)=O)cccc12)c1ccc(Cl)c(C#N)c1 | 0.025 to 0.1 | – | –
54 | COc1cc2c(Nc3cccc(C(F)(F)F)c3)nnnc2cc1OCCCCl | – | 21.4 | –
55 | NC(=O)c1cccc2c(NCc3cccc(C(F)(F)F)c3)nnnc12 | 0.101 to 0.5 | – | –
56 | CC(C)(CC(=O)On1nnc2ccccc2c1=O)CN1C(=O)c2cc3oc(-c4ccc(Cl)cc4)cc3n2C1=S | – | – | IC50 [8]: 0.26 µM; IC50 [9]: 0.16 µM
